# Tests used:
# Format in all cases: cell-based
# [1] = tested on: HSP70 protein level; assay: HSP70 ELISA (Enzo kit), normal human dermal fibroblasts, 24 h treatment; details: 0.01%, HDF cells, FIG. 4
# Method: (§1) Normal human dermal fibroblasts (Cascade Biologics) were seeded into four wells of a six well plate (5.0×10^5 cells/well) and cultured overnight. The following day, cells were replenished with fresh media and test compositions were added. The test compositions including their control for each formulation: […]
# (§2) Following 24 hours of treatment, the cells were lysed and the HSP70 protein level was measured using an ELISA kit (available from Enzo Life Sciences). Cells were lysed using the lysis buffer provided with the kit. The amount of proteins for each sample was calculated using the standard curve.
# The assay was performed in triplicate for each sample and the values represent mean±S.D. (standard deviation).
# [2] = tested on: HSP70 protein level; assay: HSP70 ELISA (Abcam kit), full thickness human 3D skin cultures (MatTek), 24 h treatment; details: 1% by weight, skin 3-D tissues, FIG. 6
# Method: A series of experiments was conducted to assess the effects of various treatments with HSP70 inducers on full thickness 3D skin cultures. Human 3D skin (MatTek, Mass.) were cultured following the manufacturer's instructions overnight. The following day, tissues were replenished with fresh media and then compositions comprising various potential actives were added. Following 24 hours of treatment, the tissues were lysed and the HSP70 protein level was measured using an ELISA kit (available from Abcam). The amount of the proteins was calculated according to the standard curve. For these measurements, the test materials were formulated in control at 1% by weight of the composition or at 0.04% by weight of the composition (Arnica montana, rosemary, black cohosh, turmeric, chamomile, aloe, horse chestnut, linseed, grapeseed, argan oil, gromwell, marjoram, sage, lauric acid, butyric acid) or they were formulated in control at 0.04% by weight of the composition (licorice, tetrahydrocurcumin (THC), olive leaf, milk thistle, glutamate).
# The results are shown in FIG. 6 as the measured amount of HSP70 proteins/μg total protein for each sample. Samples labeled with “*” indicate a p value compared to the control of less than 0.05.
# [3] = tested on: HSP70 protein level; assay: HSP70 ELISA (Abcam kit), normal human dermal fibroblasts, 24 h treatment; details: for stimulation of HSP70 protein level as compared to control: HDF cells, FIG. 5; for HSP70 induction value (Control = 1): normal human dermal fibroblasts, FIG. 3
# Method: Normal human dermal fibroblasts were cultured in 6-well tissue culture treated plates. Cells were treated with test material (agent/compound) at the concentrations indicated, or with respective vehicle control diluted in growth medium, for 24 hours in a humidified 37° C. incubator with 5% CO2. After incubation, growth medium from each plate was removed and cells were lysed. HSP70 protein level in the cells was determined by a commercially available ELISA kit (Abcam, Cambridge, Mass.). In FIG. 3, Control induction value=1; shikonin (1 μM concentration) induction value=1.7; Arnica Montana (0.003% concentration) induction value=1.86; resveratrol (0.003% concentration) induction value=1.47; and G. T. polyphenol (0.003% concentration) induction value=1.24.
# as §1, with “Similar experimentation on other HSP70 inducers was performed using an HSP70 ELISA kit (available from Abcam; cat. # ab133060). Briefly, normal” for “Normal”
# as §2, with “The active ingredient was formulated in the ethanol:water control. Following” for “Following”, “Abcam).” for “Enzo Life Sciences).”
# The assay was performed in triplicate for each sample and the values represent mean±S.D. (standard deviation). Samples labeled with “*” indicate a p value compared to the control of less than 0.05.
Compound,stimulation of HSP70 protein level as compared to control ([3]; 0.003%) [%],HSP70 induction value (Control = 1) ([3]; 0.003%),other results
"C=C(C)[C@@H]1CCC(C)=C[C@H]1c1c(O)cc(CCCCC)cc1O [CBD, cannabidiol]",,,stimulation of HSP70 protein level compared to its control [1]: 189%
CCCC(=O)O [butyric acid],,,stimulation of HSP70 protein levels as compared to control [2]: 248%
"Oc1ccc(/C=C/c2cc(O)cc(O)c2)cc1 [resveratrol, trans-3,5,4′-trihydroxystilbene]",147,1.47,
CC(C)=CC[C@@H](O)C1=CC(=O)c2c(O)ccc(O)c2C1=O [shikonin],,,stimulation of HSP70 protein level as compared to control ([3]; 1 μM): 170%; HSP70 induction value (Control = 1) ([3]; 1 μM): 1.7
epigallocatechin-3-gallate [G. T. polyphenol],124,1.24,
